Measured values from patent US11584763B2, “Chromenopyridine derivatives as phosphatidylinositol phosphate kinase inhibitors” (HIBERCELL, INC., priority 2017, dated 2023).

Tests used:
Format in all cases: biochemical
PIP4K2B = target: T1, PIP4K2B (Homo sapiens, UniProt P78356); test: Trans-FI P kinase assay PIP4K2B (PIP4KtypeIIB inhibition assay); details: compounds listed under IC50 bin headings; 100 uM GTP; read-out: Trans-FI P kinase assays: PIP4K2B IC50
T1 construct: made in house; host or cells: E. coli
T1 sequence (P78356 1-416): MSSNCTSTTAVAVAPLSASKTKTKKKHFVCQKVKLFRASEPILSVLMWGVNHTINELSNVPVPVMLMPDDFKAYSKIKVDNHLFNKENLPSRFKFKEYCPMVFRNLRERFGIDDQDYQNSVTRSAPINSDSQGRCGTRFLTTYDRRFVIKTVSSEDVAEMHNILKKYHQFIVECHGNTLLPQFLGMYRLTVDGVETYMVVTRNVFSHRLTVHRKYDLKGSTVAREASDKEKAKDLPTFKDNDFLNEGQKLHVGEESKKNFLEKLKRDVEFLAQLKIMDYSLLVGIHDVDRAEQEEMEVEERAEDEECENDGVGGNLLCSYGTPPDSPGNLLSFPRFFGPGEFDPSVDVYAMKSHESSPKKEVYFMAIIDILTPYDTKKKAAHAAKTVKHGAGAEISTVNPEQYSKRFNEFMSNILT
How it was run: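 Transcreener FI fluorescence read-out of GDP formed by E. coli-expressed GST-PIP4K2B (5 nM) using 100 uM GTP and 80 uM PI5P with DOPE carrier lipid, pH 7.3, 2 h reaction. Compounds (up to 4.8 uM) were preincubated with enzyme 1 h at 27 C; IC50 fitted from residual activity relative to no-inhibitor control.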

PIP4K 2A [1] = target: T2, PIP4K 2A (Homo sapiens, UniProt P48426); test: ADP-glo kinase assay PIP4K 2A; set-up: 4 nM PIP4K2A (full length protein, SignalChem); purchased SignalChem; details: compounds listed under IC50 bin headings
T2 sequence (P48426 1-406): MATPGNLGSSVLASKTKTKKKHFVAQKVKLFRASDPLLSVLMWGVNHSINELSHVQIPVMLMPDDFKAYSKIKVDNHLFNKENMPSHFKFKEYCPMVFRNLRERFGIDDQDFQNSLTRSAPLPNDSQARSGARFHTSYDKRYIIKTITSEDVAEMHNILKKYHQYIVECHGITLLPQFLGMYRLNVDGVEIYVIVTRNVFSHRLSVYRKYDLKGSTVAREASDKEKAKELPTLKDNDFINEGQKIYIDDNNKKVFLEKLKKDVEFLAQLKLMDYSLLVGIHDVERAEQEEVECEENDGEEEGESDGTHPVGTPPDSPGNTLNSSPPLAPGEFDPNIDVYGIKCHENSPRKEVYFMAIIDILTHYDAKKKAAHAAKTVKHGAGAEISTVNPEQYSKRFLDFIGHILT
How it was run: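 Inhibition was calculated versus DMSO controls from ADP-Glo luminescence and fitted to IC50 over a 10-point, threefold series. Compound was first pre-incubated 15 min at room temperature with PIP4K2A (full-length; 4 nM in the enzyme/substrate mix) and PI(5)P diC8 (100 μM in that mix). The reaction then ran for 1 h after adding 60 μM ATP solution, in MOPS pH 7.2/MgCl2/Tween buffer.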

PIP4K 2A [2] = target: T2, PIP4K 2A; test: Kinase Assay PIP4K2 A (PIP4KtypeIIA inhibition assay); set-up: made in house; host or cells: E. coli; details: compounds listed under IC50 bin headings
Description: GST tagged PIP4KtypeIIA and B enzymes were overexpressed in E. Coli and purified to >80% homogeneity. Phosphatidyl inositol-5-phosphate (PI5P, Cat. #850152, Avanti Polar Lipids Inc.) was used as the lipid substrate and phosphatidyl ethanolamine (DOPE 18:1, Cat. #850725, Avanti Polar Lipids Inc.) was used as the carrier lipid for assays. Ultrapure ATP and GTP was purchased from Bellbrooke Labs. ADP Glo reagents were obtained from Promega. Transcreener FI reagent was obtained from Bellbrooke labs.
Enzyme preparation: GST-tagged PIP4KtypeIIA (5 uL, 1.43 mg/mL) was diluted (1:10) to 50 uL using HNE buffer. From the 1:10 diluted stock, a 6.4 uL aliquot was diluted further to 5 mL using HNE buffer to yield 5× enzyme stock (2.5 nM).
Lipid Preparation: In a 10 mL pyrex glass vial, 1 ug of PI5P and 1 ug of DOPE were suspended in 2.5 mL of HEPES buffer mix and 2.5 mL of H:E buffer. The contents were mixed and sonicated for 3 min to yield a translucent lipid stock.
Compound Preparation: Compounds were stored as 5 mM stocks in neat DMSO as room temperature in glass vials. 5 mM stocks were diluted to 2 mM and then serially diluted (3×) in neat DMSO in 96 well polypropylene plates. From the serially diluted stocks, 3 uL was delivered into 250 uL of 25% DMSO (in water) to generate 5× compound stocks. Typically, the highest compound conc. was 24 uM.
The assay volume was kept at 25 uL. To each well of the reaction plate, 10 uL of lipid stock (1:1 ratio PI5P:DOPE) was delivered. This was followed by the addition of 5 uL of compound in 25% DMSO. Then, to each well, 5 uL of 2.5 nM (5×) typeIIA enzyme was delivered. The contents were mixed well and incubated for 1 h at 27 C. After 1 h, reaction was initiated by adding 5 uL of 50 uM ATP and the contents were mixed well with a multi-channel pipetteman. The final concentration of the reagents are as follows: 50 mM HEPES, pH 7.3, 10 mM MgCl2, 20 mM NaCl, 0.01% v/v triton-X100, 5% DMSO, 10 uM ATP, 80 uM (2 ug) PI5P, 2 ug DOPE, and 0.5 nM PIP4KIIA. Typically, the highest conc. of compounds was 4.8 uM and the lowest conc. was 0.
After 1 hr, the reaction was quenched by adding 25 uL of ADP Glo reagent. The contents were incubated for 1 hr. Afterwards, 50 uL of kinase detection reagent was delivered. The contents were incubated for another hour. The luminescence was read using Molecular Devices Paradigm plate reader. […] The blanks were averaged and subtracted from all other wells. Using a calibration curve, RLU was converted to uM ADP (product). IC50 was calculated by plotting the residual activity (expressed as % No inhibitor control) vs. log [Inh. conc.]

Structure (SMILES)	IC50 (PIP4K2B) [nM]	IC50 (PIP4K 2A [1]) [nM]	IC50 (PIP4K 2A [2]) [nM]
CC1Oc2cc(N3CCCC3=O)ccc2-c2cnc(Nc3cnc4c(c3)N(C(=O)C3(O)CC3)CCO4)cc21 (stereo not drawn) [Example 58, 1-(3-((1-(1-hydroxycyclopropane-1-carbonyl)-2,3-dihydro-1H-pyrido[2,3-b][1,4]oxazin-7-yl)amino)-5-methyl-5H-chromeno[4,3-c]pyridin-8-yl)pyrrolidin-2-one]	1 to 10	≤ 1	≤ 1
CC1Oc2cc(N3CCCC3=O)ccc2-c2cnc(Nc3cnc4c(c3)N(C(=O)C(C)(C)O)CCO4)cc21 (stereo not drawn) [Example 59, 1-(3-((1-(2-hydroxy-2-methylpropanoyl)-2,3-dihydro-1H-pyrido[2,3-b][1,4]oxazin-7-yl)amino)-5-methyl-5H-chromeno[4,3-c]pyridin-8-yl)pyrrolidin-2-one]	1 to 10	≤ 1	≤ 1
CC(O)C(=O)N1CCOc2ncc(Nc3cc4c(cn3)-c3ccc(N5CCCC5=O)cc3OC4C)cc21 (stereo not drawn) [Example 60, 1-(3-((1-(2-hydroxypropanoyl)-2,3-dihydro-1H-pyrido[2,3-b][1,4]oxazin-7-yl)amino)-5-methyl-5H-chromeno[4,3-c]pyridin-8-yl)pyrrolidin-2-one]	1 to 10	≤ 1	≤ 1
CC1Oc2cc(N3CCCC3=O)ccc2-c2cnc(Nc3cnc4c(c3)N(C(=O)CO)CCO4)cc21 (stereo not drawn) [Example 61, 1-(3-((1-(2-hydroxyacetyl)-2,3-dihydro-1H-pyrido[2,3-b][1,4]oxazin-7-yl)amino)-5-methyl-5H-chromeno[4,3-c]pyridin-8-yl)pyrrolidin-2-one]	1 to 10	≤ 1	≤ 1
CC1Oc2cc(N3CCCC3=O)ccc2-c2cnc(Nc3cnc4c(c3)OCCO4)cc21 (stereo not drawn) [Example 62, 1-(3-((2,3-dihydro-[1,4]dioxino[2,3-b]pyridin-7-yl)amino)-5-methyl-5H-chromeno[4,3-c]pyridin-8-yl)pyrrolidin-2-one]	10 to 100	1 to 10	≤ 1
CC1Oc2cc(N3CCCC3=O)ccc2-c2cnc(Nc3cnc4nccnc4c3)cc21 (stereo not drawn) [Example 63, 1-(5-methyl-3-(pyrido[2,3-b]pyrazin-7-ylamino)-5H-chromeno[4,3-c]pyridin-8-yl)pyrrolidin-2-one]	100 to 1000	1 to 10	1 to 10
CC1Oc2cc(N3CCCC3=O)ccc2-c2cnc(Nc3cnc4cccnc4c3)cc21 (stereo not drawn) [Example 64, 1-(3-((1,5-naphthyridin-3-yl)amino)-5-methyl-5H-chromeno[4,3-c]pyridin-8-yl)pyrrolidin-2-one]	100 to 1000	10 to 100	1 to 10
CC1Oc2cc(N3CCCC3=O)ccc2-c2cnc(Nc3cnc4scnc4c3)cc21 (stereo not drawn) [Example 65, 1-(5-methyl-3-(thiazolo[5,4-b]pyridin-6-ylamino)-5H-chromeno[4,3-c]pyridin-8-yl)pyrrolidin-2-one]	100 to 1000	10 to 100	1 to 10
CC1Oc2cc(C(=O)N(C)C)ccc2-c2cnc(Nc3cnc4c(c3)N(C(=O)C(C)(C)C)CCO4)cc21 (stereo not drawn) [Example 67, N,N,5-trimethyl-3-((1-pivaloyl-2,3-dihydro-1H-pyrido[2,3-b][1,4]oxazin-7-yl)amino)-5H-chromeno[4,3-c]pyridine-8-carboxamide]	1 to 10	≤ 1	≤ 1
CC1Oc2cc(C(=O)N(C)C)ccc2-c2cnc(Nc3cnc4c(c3)N(C(=O)C3CC3)CCO4)cc21 (stereo not drawn) [Example 68, 3-((1-(cyclopropanecarbonyl)-2,3-dihydro-1H-pyrido[2,3-b][1,4]oxazin-7-yl)amino)-N,N,5-trimethyl-5H-chromeno[4,3-c]pyridine-8-carboxamide]	1 to 10	≤ 1	≤ 1
COC(=O)N1CCOc2ncc(Nc3cc4c(cn3)-c3ccc(C(=O)N(C)C)cc3OC4C)cc21 (stereo not drawn) [Example 69, methyl 7-((8-(dimethylcarbamoyl)-5-methyl-5H-chromeno[4,3-c]pyridin-3-yl)amino)-2,3-dihydro-1H-pyrido[2,3-b][1,4]oxazine-1-carboxylate]	1 to 10	≤ 1	≤ 1
CC(=O)N1CCOc2ncc(Nc3cc4c(cn3)-c3ccc(C(=O)N(C)C)cc3OC4C)cc21 (stereo not drawn) [Example 70, 3-((1-acetyl-2,3-dihydro-1H-pyrido[2,3-b][1,4]oxazin-7-yl)amino)-N,N,5-trimethyl-5H-chromeno[4,3-c]pyridine-8-carboxamide]	1 to 10	≤ 1	≤ 1
CC1Oc2cc(C(=O)N(C)C)ccc2-c2cnc(Nc3cnc4c(c3)N(S(C)(=O)=O)CCO4)cc21 (stereo not drawn) [Example 71, N,N,5-trimethyl-3-((1-(methylsulfonyl)-2,3-dihydro-1H-pyrido[2,3-b][1,4]oxazin-7-yl)amino)-5H-chromeno[4,3-c]pyridine-8-carboxamide]	1 to 10	≤ 1	≤ 1
CC1Oc2cc(C(=O)N(C)C)ccc2-c2cnc(Nc3cnc4c(c3)N(S(=O)(=O)C3CC3)CCO4)cc21 (stereo not drawn) [Example 72, 3-((1-(cyclopropylsulfonyl)-2,3-dihydro-1H-pyrido[2,3-b][1,4]oxazin-7-yl)amino)-N,N,5-trimethyl-5H-chromeno[4,3-c]pyridine-8-carboxamide]	1 to 10	1 to 10	≤ 1
CC1(C)Oc2cc(N3CCCC3=O)ccc2-c2cnc(Nc3cnc4c(c3)N3C(=O)CC[C@H]3CO4)cc21 [Example 73, (S)-2-((5,5-dimethyl-8-(2-oxopyrrolidin-1-yl)-5H-chromeno[4,3-c]pyridin-3-yl)amino)-6,6a,7,8-tetrahydro-9H-pyrido[2,3-b]pyrrolo[1,2-d][1,4]oxazin-9-one]	1 to 10	≤ 1	≤ 1
